# Data from paper PMC10917816, “Synthesis and evaluation of coumarin derivatives on antioxidative, tyrosinase inhibitory activities, melanogenesis, and in silico investigations” (Scientific Reports, 2024).
# “Also recorded” adds a separate entry of the source. Read-outs that look alike come from different tables or passages of the source.
# Legend:
# mushroom tyrosinase [1] = biological target: T1, mushroom tyrosinase (Agaricus bisporus, UniProt C7FF04); assay: Mushroom tyrosinase activity assay (L-DOPA substrate); format: biochemical; settings: for activity at 100 µM: <100 inhibitor, >100 activator; for Activity (inhibitor or activator of mushroom tyrosinase): classified from %activity at 100 µM (<100 inhibitor, >100 activator)
# Protocol: Samples were dissolved in a mixture of DMSO and the phosphate buffer solution (40%DMSO, 20 µL) and were added into a 96-well microplate filled with phosphate buffer (20 mM, pH 6.8, 140 µL), mushroom tyrosinase (30 U/mL, 20 µL). After 10 min of pre-incubation at room temperature (25 °C), 20 µL of a 0.85 mM L-DOPA (3,4-dihydroxyphenylalanine) solution in phosphate buffer was added to the mixture. (Final concentration of the tested compound equaled 100 µM and final DMSO content equaled 4%). […] Instead of an inhibitor solution, phosphate buffer was added as the negative control. The percentage of tyrosinase activity was calculated as follows: %Activity = (Sample) × 100/Blank, where Blank = (OD of Blank solution at 10 min)—(OD of Blank solution at 0 min) and Sample = (OD of Sample solution at 10 min)—(OD of Sample solution at 0 min). Each sample was analyzed in triplicate (n = 3). […] Each sample was examined in triplicate.
# Target sequence in this assay (C7FF04 1-392): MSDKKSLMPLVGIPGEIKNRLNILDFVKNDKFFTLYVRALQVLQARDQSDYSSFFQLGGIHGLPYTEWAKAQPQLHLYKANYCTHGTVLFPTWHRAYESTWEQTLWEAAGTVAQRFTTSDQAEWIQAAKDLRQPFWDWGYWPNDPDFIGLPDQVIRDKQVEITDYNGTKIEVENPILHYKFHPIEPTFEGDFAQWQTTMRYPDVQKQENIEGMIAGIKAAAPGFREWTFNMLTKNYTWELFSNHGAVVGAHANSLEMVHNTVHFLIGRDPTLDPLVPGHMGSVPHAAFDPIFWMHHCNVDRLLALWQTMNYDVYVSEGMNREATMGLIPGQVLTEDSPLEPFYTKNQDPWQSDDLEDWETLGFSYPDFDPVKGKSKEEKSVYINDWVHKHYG
# [2] = Lipid peroxidation inhibitory activity (thiobarbituric acid test, linoleic acid); settings: at 1 mg/ml of tested compound; TBA test
# [3] = Cell viability assay (MTT); format: cell-based, Mus musculus; settings: mouse, B16F10 melanoma cells
# Protocol: (§1) B16F10 cells were incubated with compounds 13 (25–100 µM) and 14 (25–150 µM) for 48 h. KA (50–200 µM) and 8-MOP (50–150 µM) were used as reference compounds for the tyrosinase inhibitor and the activator, respectively. […] (%viability decreased to 50%).
# (§2) B16F10 cells (ATCC-CRL-6475, USA) were cultured in Dulbecco’s modified eagle medium (DMEM) containing 10% fetal bovine serum (FBS), 100 U/mL penicillin, and 1 μg/mL streptomycin. Cell viability was evaluated using the MTT assay. B16F10 cells (5 × 10^3 cells/well) were cultured in a 96-well plate at 37 °C in a 5% CO2 incubator for 24 h. Tested compounds dissolved in DMSO/H2O (40% v/v) at different concentrations were added to sample wells, and the cells were further incubated at 37 °C in a 5% CO2 incubator for 48 h. Then, 50 µL of methylthiazolyldiphenyl-tetrazolium bromide (MTT) solution (0.5 mg/ml in 10 mM phosphate buffer, pH 7.4) was added to each well and left under a CO2 incubator for 2 h. The formazan crystals formed were dissolved in DMSO, and the absorbance was measured at 570 nm. Percent viability was calculated as the percent of surviving cells in the well compared to the control cells.
# B16F10 melanoma cells = assay: Cell viability assay (MTT); format: cell-based, Mus musculus; settings: 48 h
# Protocol: as §1, §2
# B16F10 cells = assay: Melanin content assay; format: cell-based, Mus musculus; settings: 48 h
# Protocol: Compound 13 and compound 14 were also determined for their melanogenesis activities in the B16F10 cells. Intracellular melanin content was measured. […] However, the increase in melanin content in the cells was lower than cells treated with 8-MOP (Fig. 8B).
# The method for the melanin content assay was modified from Lee et al.[37]. B16F10 (8 × 10^4 cell/mL) cells were seeded in a 6-well plate and incubated at 37 °C in a 5% CO2 incubator for 24 h. The tested and reference compounds in various concentrations were mixed with α-melanocyte stimulating hormone (α-MSH, 10 nM) and added to the well. The cells were continuously incubated at 37 °C for 48 h. Then, the cells were washed twice with 10 mM phosphate buffer pH 7.4. 1 M NaOH (0.2 mL) was added to each well and warmed at 65 °C for 1 h. The mixture was centrifuged at 12,000 rpm for 10 min. The absorbance of the supernatant was measured at 405 nm. The percent melanin content in the treatment group was obtained from the absorbance and calculated as a percentage compared to the untreated group.
# mushroom tyrosinase [4] = biological target: T1, mushroom tyrosinase; assay: Enzyme kinetic study (Lineweaver–Burk plot); format: biochemical; design: purchased Sigma-Aldrich or Merck AG; settings: double-reciprocal (Lineweaver–Burk) plots
# Protocol: Double-reciprocal plots were used to investigate the mechanisms of mushroom tyrosinase inhibition by compound 13 (Fig. 2).
# Utilizing the same protocol as the tyrosinase activity assay, an enzyme kinetics study was conducted with compound 13. A Michaelis–Menten plot was generated by varying the substrate concentration (25–10,000 µM) and reaction rate under conditions with and without inhibitors. A Lineweaver–Burk plot was generated, and the inhibition mode of the inhibitor was determined based on the variation of Km and Vmax as the inhibitor concentration changed.
# Target sequence in this assay (C7FF04 1-392 limits assumed): as the sequence (C7FF04 1-392) above
# murine tyrosinase = settings: broad range; cited from earlier work
# [5] = at 100 µM of tested compound, read-out: Mushroom tyrosinase %Activity ± S.D.
Compound,activity at 100 µM (mushroom tyrosinase [1]; [5]),Activity (inhibitor or activator of mushroom tyrosinase) (mushroom tyrosinase [1]),melting point,Lipid peroxidation %Inhibition ± S.D. [2],other results
"COc1cc2oc(=O)cc(CC(=O)NCCc3ccc(O)cc3)c2cc1O [Compound 18, N-(4-hydroxyphenethyl)-2-(6-hydroxy-7-methoxy-2-oxo-2H-chromen-4-yl)acetamide]",115 ± 3.87%,Activator,227 to 228 °C,63.40 ± 0.89%,–
CCOC(=O)C(Cc1c[nH]c2ccccc12)NC(=O)Cc1cc(=O)oc2cc(OC)ccc12 (stereo not drawn) [Compound 13],51.1 ± 9.45%,Inhibitor,162 to 163 °C,67.88 ± 5.48%,"viability at 48 h, 75 µM ([3]; 75 µM): 50%; viability at 48 h ([3]; 25–50 µM): > 80%; Cytotoxicity against B16F10 cells (B16F10 melanoma cells; 25–50 μM): did not show cytotoxicity; Effect on melanogenesis (intracellular melanin content) in B16F10 cells (B16F10 cells; 25 μM, with α-MSH, compared with KA at 100 μM): inhibited melanogenesis equally to KA at 100 μM; Effect on melanogenesis (intracellular melanin content) in B16F10 cells (B16F10 cells; 50 μM, with α-MSH, compared with KA at 100 μM): suppressed melanogenesis in B16F10 cells with two times higher potency than KA; also recorded: suppressed melanogenesis with approximately two times higher potency than KA at 100 μM; also recorded: higher melanin suppression at a lower concentration (50 μM) than KA (100 μM); Mechanism of mushroom tyrosinase inhibition (mushroom tyrosinase [4]): uncompetitive inhibition; also recorded: uncompetitively inhibited the tyrosinase enzyme; also recorded: uncompetitive tyrosinase inhibitor"
"Cc1cc(C(C)(C)C)c(O)c(C(C)(C)C)c1 [BHT, butylated hydroxytoluene, reference compound]",–,–,–,62.90 ± 3.56%,–
"O=c1cc(CO)occ1O [KA, kojic acid]",–,–,–,–,Activity against murine tyrosinase (murine tyrosinase): > 100 µM
"CCOC(=O)C(Cc1cc2ccccc2[nH]1)NC(=O)Cc1cc(=O)oc2cc(O)ccc12 (stereo not drawn) [Compound 9, Ethyl 2-(2-(7-hydroxy-2-oxo-2H-chromen-4-yl)acetamido)-3-(1H-indol-2-yl)propanoate]",98.3 ± 2.55%,Inhibitor,185 to 188 °C,77.57 ± 4.11%,–
"O=C(Cc1cc(=O)oc2cc(O)ccc12)NCCc1ccc(O)cc1 [Compound 10, N-(4-hydroxyphenethyl)-2-(7-hydroxy-2-oxo-2H-chromen-4-yl)acetamide]",121 ± 7.51%,Activator,223 to 225 °C,27.51 ± 2.78%,–
"COc1c2occc2cc2ccc(=O)oc12 [Compound 8-MOP, 8-methoxypsoralen, reference compound]",–,Activator,–,–,"activity at 100 µM (mushroom tyrosinase [1]; read-out: Mushroom tyrosinase %Activity ± S.D., at 100 µM of tested compound): 101 ± 6.18%"

# More lines, main results first:
activity at 100 µM (mushroom tyrosinase [1]; [5]),Activity (inhibitor or activator of mushroom tyrosinase) (mushroom tyrosinase [1]),melting point,Compound,Lipid peroxidation %Inhibition ± S.D. [2],other results
113 ± 8.16%,Activator,154 to 155 °C,"CCOC(=O)C(Cc1ccc(O)cc1)NC(=O)Cc1cc(=O)oc2cc(OC)ccc12 (stereo not drawn) [Compound 12, Ethyl 2-(2-(7-methoxy-2-oxo-2H-chromen-4-yl)acetamido)-3-(4-hydroxyphenyl) propanoate]",77.84 ± 3.25%,–
81.3 ± 3.72%,Inhibitor,144 to 145 °C,"CCOC(=O)C(Cc1ccccc1)NC(=O)Cc1cc(=O)oc2cc(OC)ccc12 (stereo not drawn) [Compound 11, Ethyl 2-(2-(7-methoxy-2-oxo-2H-chromen-4-yl)acetamido)-3-phenylpropanoate]",87.68 ± 1.09%,–
90.8 ± 12.4%,Inhibitor,184 to 185 °C,"CCOC(=O)C(Cc1ccccc1)NC(=O)Cc1cc(=O)oc2cc(OC)c(O)cc12 (stereo not drawn) [Compound 15, Ethyl 2-(2-(6-hydroxy-7-methoxy-2-oxo-2H-chromen-4-yl)acetamido)-3-phenylpropanoate]",98.06 ± 0.54%,–
123 ± 13.4%,Activator,152 to 153 °C,"COc1ccc2c(CC(=O)NCCc3ccc(O)cc3)cc(=O)oc2c1 [Compound 14, N-(4-hydroxyphenethyl)-2-(7-methoxy-2-oxo-2H-chromen-4-yl)acetamide]",26.66 ± 1.67%,"Cytotoxicity against B16F10 cells (B16F10 melanoma cells; 25–100 μM): did not show cytotoxicity; Effect on melanogenesis (intracellular melanin content) in B16F10 cells (B16F10 cells; 25–100 μM, compared with 8-MOP): melanogenesis enhancement in B16F10 cells in a dose-dependent manner, however, inferior to the 8-MOP; also recorded: effectively enhanced melanogenesis in B16F10 cells in a dose-dependent manner"
75.9 ± 8.95%,Inhibitor,173 to 174 °C,CCOC(=O)C(Cc1c[nH]c2ccccc12)NC(=O)Cc1cc(=O)oc2cc(OC)c(O)cc12 (stereo not drawn) [Compound 17],91.84 ± 5.39%,–
107 ± 9.89%,Activator,152 to 154 °C,"CCOC(=O)C(Cc1ccc(O)cc1)NC(=O)Cc1cc(=O)oc2cc(O)ccc12 (stereo not drawn) [Compound 8, Ethyl 2-(2-(7-hydroxy-2-oxo-2H-chromen-4-yl)acetamido)-3-(4-hydroxyphenyl)propanoate]",44.32 ± 4.16%,–
86.2 ± 10.5%,Inhibitor,139 to 140 °C,"CCOC(=O)C(Cc1ccccc1)NC(=O)Cc1cc(=O)oc2cc(O)ccc12 (stereo not drawn) [Compound 7, Ethyl 2-(2-(7-hydroxy-2-oxo-2H-chromen-4-yl)acetamido)-3-phenylpropanoate]",98.66 ± 1.57%,–
100 ± 3.13%,Activator,198 to 200 °C,"CCOC(=O)C(Cc1ccc(O)cc1)NC(=O)Cc1cc(=O)oc2cc(OC)c(O)cc12 (stereo not drawn) [Compound 16, Ethyl 2-(2-(6-hydroxy-7-methoxy-2-oxo-2H-chromen-4-yl)acetamido)-3-(4-hydroxyphenyl) propanoate]",79.31 ± 2.77%,–
